Our source for the viability, T/C and IC50 values is PubChem BioAssay AID1963836 (Molecular Pharmacology Branch, DTP, NCI, 2024).

Values joined by “and” are separate entries in the source; they are usually repeats but may differ in a detail not shown here. Equal entries are not always repeated.

In the test the test system is 857933-349-R-J2-PDC complex spheroid viability. Put plainly: Anticancer human tumor 857933-349-R-J2-PDC patient-derived colon adenocarcinoma cell line growth inhibition [POLQ]. Conditions: for viability, T/C: stronger effect = lower value; for IC50: curve of compound. As for the experimental part:
Multicellular complex tumor spheroid response to Polymerase (POL) inhibitors (novobiocin, ART-558, RP6685) in combination with a variety of drugs and investigational agents in selected tumor cell lines
The POL inhibitors (novobiocin, ART-558, and RP6685) were evaluated both individually and in combination with standard of care and investigational anticancer small molecules within a complex spheroid model of solid tumors. . Complex spheroids include a stromal component modeled by human endothelial cells (HUVEC) and fibroblasts modeled by human mesenchymal stem cells (MSCs). The concentration ranges selected for each drug and investigational agent were based upon clinically achievable concentrations if the clinical Cmax of the agent was known.
Compounds. The drugs and investigational agents: novobiocin (NSC847541), ART-558 (NSC835418), RP-6685 (NSC848927), peposertib (NSC802822), ceralasertib (NSC780249), elimusertib (NSC800525), camonsertib (NSC841442), AZD-1390 (NSC803789), olaparib (NSC753686), talazoparib (NSC767125), rucaparib (NSC756644), sotorasib (NSC818433), MRTX-1133 (NSC836407), SN-38 (NSC673596), topotecan (NSC609699), epotoside (NSC141540), doxorubicin (NSC123127), gemcitabine (NSC613327), 5-fluorouracil (NSC19893), paclitaxel (NSC125973), vemurafenib (NSC761431), MSA-2 (NSC828583), SN-011 (NSC837082), adavosertib (NSC754352), prexasertib (NSC758257), carboplatin (NSC241240) and oxaliplatin (NSC266046), were obtained from the National Cancer Institute (NCI) Developmental Therapeutics Program Chemical Repository (21). The FDA-approved anticancer drug set is available from the Developmental Therapeutics Program at https://dtp.cancer.gov/organization/dscb/obtaining/. […] The stock solutions were prepared in dimethyl sulfoxide (DMSO, Sigma-Aldrich, St. Louis, MO, cat. D2650), except for the platinum compounds which were prepared in saline (Quality Biological, Gaithersburg, MD, cat. 114-055-101), at 800-fold the tested concentration and stored at -70 degrees C prior to their use. All drugs and investigational agents were tested over a range starting from a high concentration at or near the clinical Cmax and decreasing in half-log increments. If the clinical Cmax for an agent had not been determined, the highest concentration tested was 10 microM, except for SN-38, which was tested at a high concentration of 1 microM.
Cell Culture. All cells were maintained in an incubator at 37 degrees C and 5% CO2 with 95% humidity. The PDC lines were cultured according to standard operating procedures established by the NCI PDMR (https://pdmr.cancer.gov). Table 3 of the manuscript, lists the cell lines along with the number of the three cell types plated to form the mct-spheroids and media for tumor cell growth. After thawing, all PDC lines, except 997537-175-T-J1-PDC and 415267-285-R-J2-PDC, were cultured in Matrigel-coated flasks prepared with a working solution of 1X Ham's F-12 nutrient mix, without supplementation (Thermo Fisher Scientific, cat. 11765054), 100 U/mL penicillin-streptomycin (Thermo Fisher Scientific, cat. 15140122), and 2.5% Matrigel (Corning Inc., Corning, NY, cat. 354248) for the first three passages. The two PDC lines 997537-175-T-J1-PDC and 415267-285-R-J2-PDC were cultured on uncoated flasks. The 857933-349-R-J2-PDC line was cultured in 6C/Colon 1B media containing advanced DMEM/F-12 (Thermo Fisher Scientific, cat. 12634028), 10 mM HEPES (Thermo Fisher Scientific, cat. 15630080), 1X GlutaMAX supplement (Thermo Fisher Scientific, cat. 35050061), 0.1 mg/mL primocin (InvivoGen, San Diego, CA, cat. ant-pm-2), 10% defined fetal bovine serum, heat inactivated (HyClone Laboratories Inc., Logan, UT, cat. SH30070.03HI), 50% L-WRN conditioned media (ATCC, cat. CRL-3276), 1.25 mM N-Acetyl-L-cysteine (Sigma-Aldrich, cat. A9165), 10 mM nicotinamide (Sigma-Aldrich, cat. N0636), 1X B-27 supplement (Thermo Fisher Scientific, cat. 17504044), 1X N-2 supplement (Thermo Fisher Scientific, cat. […]
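Further: spheroids exposed to compounds for seven days before readout.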

Turning to `C=CC(=O)N1CCN(c2nc(=O)n(-c3c(C)ccnc3C(C)C)c3nc(-c4c(O)cccc4F)c(F)cc23)C(C)C1` (stereo not given), the 50% inhibitory concentration (IC50) is more than 10000 nM. Where the note is “compound 0.0316 µM”, the viability, T/C is 82% and 96.3% and 96.5%. The viability, T/C (compound 0.1 µM) was 103% and 96.2% and 101%. Also, under “compound 0.316 µM”, the viability, T/C is 97.5% and 113% and 80.8%. In addition, the viability, T/C (compound 1 µM) was 101% and 99.1% and 91.3%. In addition, the viability, T/C (compound 3.16 µM) was 94.3% and 103% and 92.1%. Also, the viability, T/C (compound 10 µM) was 117% and 103% and 94.6%.

Take `C=CCn1c(=O)c2cnc(Nc3ccc(N4CCN(C)CC4)cc3)nc2n1-c1cccc(C(C)(C)O)n1`: the concentration for half-maximal inhibition (IC50) was more than 1000 nM. For the same molecule, the viability, T/C (compound 0.00316 µM) is 99.5% and 94.6% and 95.5%. The viability, T/C (compound 0.01 µM) was 72.9% and 104% and 93.5%. Also, the viability, T/C (compound 0.0316 µM) is 84.6% and 98.7% and 93.5%. In addition, the viability, T/C (compound 0.1 µM) was 94.9% and 107% and 102%. Also, the viability, T/C (compound 0.316 µM) is 109% and 102% (2×). The viability, T/C (compound 1 µM) is 66.4% and 73.5% and 82.9%.

In the case of `CC(=O)O[C@H]1C(=O)[C@@]2(C)[C@H]([C@H](OC(=O)c3ccccc3)[C@]3(O)C[C@H](OC(=O)[C@H](O)[C@@H](NC(=O)c4ccccc4)c4ccccc4)C(C)=C1C3(C)C)[C@]1(OC(C)=O)CO[C@@H]1C[C@@H]2O`, the IC50 was < 9.49 nM and 9.59 nM and 15 nM. Besides, the viability, T/C (compound 0.00949 µM) was 40.3% and 50.5% and 65.1%. The viability, T/C (compound 0.03 µM) is 15.2% and 21.8% and 27.1%. Moreover, under “compound 0.0949 µM”, the viability, T/C was 9.46% and 11.5% and 16.2%. Besides, the viability, T/C (compound 0.3 µM) was 12.5% and 11.3% and 21.3%. The viability, T/C (compound 0.949 µM) is 11.2% and 14.4% and 17%. The viability, T/C (compound 3 µM) was 12.1% and 16.1% and 21.9%.

Take `CC(C)n1c(=O)n(C)c2cnc3cc(F)c(-c4ccc(OCCCN5CCCCC5)nc4)cc3c21`: the IC50 was more than 10000 nM. The viability, T/C (compound 0.0316 µM) was 85.8% and 92.4% and 99%. The viability, T/C (compound 0.1 µM) is 84.1% and 96.4% and 101%. For the same molecule, where the note is “compound 0.316 µM”, the viability, T/C was 92.8% and 101% and 115%. The viability, T/C (compound 1 µM) was 91.6% and 100% and 106%. Besides, the viability, T/C (compound 3.16 µM) was 94.7% and 113% and 97.5%. For the same molecule, the viability, T/C (compound 10 µM) was 63.6% and 98.3% and 110%.

Regarding `CC1COCCN1c1cc(-c2ccnn2C)c2ccnc(-c3ccn[nH]3)c2n1` (stereo not given), the concentration for half-maximal inhibition (IC50) was 190 nM and 202 nM and 558 nM. Besides, the viability, T/C (compound 0.0316 µM) was 70% and 80.3% and 83.9%. Further, the viability, T/C (compound 0.1 µM) was 59.9% and 64.2% and 58.6%. Besides, under “compound 0.316 µM”, the viability, T/C was 40.7% and 40% and 54.9%. Also, the viability, T/C (compound 1 µM) was 41.7% and 35.7% and 48.2%. In addition, where the note is “compound 3.16 µM”, the viability, T/C was 41.2% and 43.7% and 44.5%. The viability, T/C (compound 10 µM) was 44.9% and 44.1% and 48%.

With `CC1COCCN1c1cc(C2(S(C)(=N)=O)CC2)nc(-c2ccnc3[nH]ccc23)n1` (stereo not given), the 50% inhibitory concentration (IC50) was 4650 nM and > 10000 nM and 6260 nM. Further, where the note is “compound 0.0316 µM”, the viability, T/C was 87.6% and 102% and 103%. For the same molecule, the viability, T/C (compound 0.1 µM) is 88.4% and 105% and 117%. In addition, the viability, T/C (compound 0.316 µM) is 101% (2×) and 81.7%. Further, the viability, T/C (compound 1 µM) is 77.9% and 69% and 76.1%. Besides, the viability, T/C (compound 3.16 µM) is 59.6% and 68.9% and 62.7%. The viability, T/C (compound 10 µM) was 33.2% and 55.2% and 42.2%.

As to `CCCS(=O)(=O)Nc1ccc(F)c(C(=O)c2c[nH]c3ncc(-c4ccc(Cl)cc4)cc23)c1F`, the concentration for half-maximal inhibition (IC50) is 6990 nM and 5900 nM and 5640 nM. For the same molecule, the viability, T/C (compound 0.0316 µM) is 87.2% and 97.5% and 76%. In addition, the viability, T/C (compound 0.1 µM) was 91% and 92.8% and 98.1%. Also, the viability, T/C (compound 0.316 µM) was 80.8% and 102% and 99.7%. The viability, T/C (compound 1 µM) is 82.6% and 101% and 102%. The viability, T/C (compound 3.16 µM) is 97.3% and 93.2% and 86%. For the same molecule, the viability, T/C (compound 10 µM) was 32.9% and 13.3% and 13.9%.

In the case of `CC[C@@]1(O)C(=O)OCc2c1cc1n(c2=O)Cc2cc3c(CN(C)C)c(O)ccc3nc2-1`, the IC50 was 76.4 nM and 80.2 nM and 66.3 nM. Besides, the viability, T/C (compound 0.000316 µM) is 98.5% and 99.4% and 113%. The viability, T/C (compound 0.001 µM) was 115% and 95.2% and 99.9%. The viability, T/C (compound 0.00316 µM) was 79.1% and 91.7% and 88.3%. Further, the viability, T/C (compound 0.01 µM) is 71.2% and 80% and 87.5%. The viability, T/C (compound 0.0316 µM) is 66.7% and 63.9% and 53.9%. Also, the viability, T/C (compound 0.1 µM) was 44.2% and 46.5% and 45.7%.

As for `CCc1c2c(nc3ccc(O)cc13)-c1cc3c(c(=O)n1C2)COC(=O)[C@]3(O)CC`, the IC50 was 15.6 nM and 13.6 nM and 16.5 nM. For the same molecule, the viability, T/C (compound 0.00316 µM) was 76.9% and 53.6% and 65.9%. Also, the viability, T/C (compound 0.01 µM) was 60.1% and 67.4% and 65.8%. For the same molecule, the viability, T/C (compound 0.0316 µM) is 35.1% and 21.3% and 31.4%. The viability, T/C (compound 0.1 µM) is 22.3% and 16.2% and 23.3%. Moreover, the viability, T/C (compound 0.316 µM) is 17.8% and 10.6% and 15.8%. Moreover, the viability, T/C (compound 1 µM) was 4.53% and 2.45% and 5.61%.

As to `CCc1cc2c(N3CCc4c(cc(Cn5ccnc5)cc4-c4cn(C)nc4C(F)(F)F)C3=O)ccnc2c(OC)n1`, the IC50 is more than 10000 nM. Besides, the viability, T/C (compound 0.0316 µM) was 78.8% and 89.8% and 94.1%. Further, the viability, T/C (compound 0.1 µM) is 83.8% and 87.8% and 80.9%. The viability, T/C (compound 0.316 µM) was 73.6% and 90% and 98.3%. Moreover, the viability, T/C (compound 1 µM) is 73.4% and 84.9% and 82.2%. In addition, the viability, T/C (compound 3.16 µM) was 62.2% and 72.7% and 78%. Further, the viability, T/C (compound 10 µM) was 58.9% and 65.9% and 59%.

As a reminder, the viability, T/C is the result in the treated group divided by that in the control group, in per cent. As usually defined, the IC50 is the concentration that gives 50% inhibition.
